Experimental data as given in US20130059888A1.
Where a name gives a salt, the structure may show the parent alone. Read-outs that look alike come from different tables or passages of the source.

What was measured:
[1] = system: Alzheimer-type dementia patients; conditions: cited from earlier work; for Improving effect on the behavioral and psychological symptoms such as agitation: solely administered, Am. J. Geriatr. Psychiatry 2005
[2] = system: Alzheimer-type dementia patients
Procedure: Patient. […] After 11 months from the start of the donepezil hydrochloride administration, concomitant administration of sustained release tablets of sodium valproate (twice a day after breakfast and dinner with 200 mg tablet×2) was started.
Patient. […] After 35 months from the start of the donepezil hydrochloride administration, concomitant administration of sustained release tablets of sodium valproate (twice a day after breakfast and dinner with 200 mg tablet×2) was started.
Patient. […] Concomitant administration of sustained release tablets of sodium valproate (twice a day after breakfast and dinner with 200 mg tablet×2) was started 48 months after the start of the donepezil hydrochloride administration. […] Sustained release tablets of sodium valproate (200 mg tablet×3) were administered from eight months after the start of the concomitant administration.

Alzheimer-type dementia = conditions: donepezil hydrochloride alone; cited from earlier work

Row | Structure (SMILES) | Improving effect on the behavioral and psychological symptoms such as agitation [1] | Side reactions ([1]; general statement on valproic acid and a salt thereof) | Problem behaviors ([2]; Example 1 patient, donepezil alone 5 mg once a day, two months from start) | Symptoms observed ([2]; Example 2 patient, donepezil alone 5 mg once a day, two months after start) | Symptoms observed ([2]; Example 2 patient, donepezil alone, four months after start) | Symptoms observed ([2]; Example 3 patient, donepezil alone 5 mg once a day, 15 months after start) | Symptoms observed ([2]; Example 3 patient, donepezil alone, 23 months after start) | Symptoms observed ([2]; Example 3 patient, donepezil alone, 25 months after start) | Symptoms observed ([2]; Example 4 patient, donepezil alone 5 mg once a day, two months after start) | Inspection findings ([2]; Example 5 patient, donepezil alone 5 mg once a day, 24 months after start) | Symptoms observed ([2]; Example 5 patient, donepezil alone, 41 months after start) | Cognitive disorder ([2]; Example 5 patient, donepezil alone, thirty nine months after start) | Duration of improving action against the cognitive symptoms (Alzheimer-type dementia) | Effect on the cognitive symptoms (Alzheimer-type dementia)
1 | CCCC(CCC)C(=O)[O-].[Na+] [sodium valproate] | no improving effect |  |  |  |  |  |  |  |  |  |  |  |  | 
2 | CCCC(CCC)C(=O)O [valproic acid] | does not exhibit any improving effect | little side reactions such as sleepiness |  |  |  |  |  |  |  |  |  |  |  | 
3 | COc1cc2c(cc1OC)C(=O)C(CC1CCN(Cc3ccccc3)CC1)C2 (stereo not drawn) [donepezil hydrochloride] |  |  | did not subside | symptoms of incontinentia and the like were observed | visual hallucination, incontinentia, aggressive attitude and the like were observed | dressing apraxia was observed | visual hallucination, soliloquy, emotional attitude, dressing apraxia, and stereotypy were observed | visual hallucination, delusion of persecution and the like | visual hallucination was not observed, but they spoke only their events in the old days and showed stereotypy | atrophy of the hippocampus was marked | refusal of oral administration of medicaments, soliloquy and dressing apraxia | advanced | about one year at the longest | certain effects for retarding onset or relieving of the cognitive symptoms
